Laboratory results from patent publication US20230066946A1, “1,5-DIPHENYLPYRAZOLYL-3-OXYALKYL ACIDS AND 1-PHENYL-5-THIENYLPYRAZOLYL-3-OXYALKYL ACIDS AND THE USE THEREOF FOR CONTROL OF UNWANTED PLANT GROWTH” (Bayer Aktiengesellschaft, priority 2019, published 2023).

Experiments:
AMARE [1] = assay: Post-emergence herbicidal action against AMARE; type: in vivo, Amaranthus retroflexus; settings: visual rating about 3 weeks after treatment
Outline: (§1)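 Each pot held twin-sown weeds in sandy loam, treated post-emergence 2 to 3 weeks after sowing at the one-leaf stage. Compound was given as a foliar spray at 1280 or 320 g/ha in 600 litres per hectare water with 0.5% additive. Visual scoring against untreated controls followed after about 3 weeks.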

HORMU [2] = assay: Pre-emergence herbicidal action against HORMU; type: in vivo, Hordeum murinum; settings: 320 g/ha, scored visually after about 3 weeks vs untreated controls
Source text: (§2) Seeds of mono- and dicotyledonous weed plants are placed in plastic pots in sandy loam soil (doubly sown with one species each of mono- or dicotyledonous weed plants per pot) and covered with soil. The compounds of the invention, formulated in the form of wettable powders (WP) or as emulsion concentrates (EC), are then applied onto the surface of the covering soil as aqueous suspension or emulsion with addition of 0.5% additive at a water application rate equivalent to 600 litres per hectare. After the treatment, the pots are placed in a greenhouse and kept under good growth conditions for the trial plants. After about 3 weeks, the effect of the preparations is scored visually in comparison with untreated controls as percentages. For example, 100% activity=the plants have died, 0% activity=like control plants. [table] Tables 4.1-4.15 below show the effects of selected compounds of the general formula (I) according to Tables 1 to 3 on various harmful plants at an application rate corresponding to 1280 or 320 g/ha, which have been obtained by the aforementioned experimental method.

STEME [3] = assay: Post-emergence herbicidal action against STEME; type: in vivo, Stellaria media; settings: visual rating about 3 weeks after treatment
Outline: as §1

VERPE [4] = assay: Pre-emergence herbicidal action against VERPE; type: in vivo, Veronica persica; settings: 320 g/ha, scored visually after about 3 weeks vs untreated controls
Outline: (§3)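 Pre-emergence, sandy loam, pots doubly sown. WP/EC formulations + 0.5% additive, 600 L/ha water, sprayed on soil surface; 1280 or 320 g/ha. Greenhouse ~3 wk; visual % effect vs untreated.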

STEME [5] = assay: Pre-emergence herbicidal action against STEME; type: in vivo, Stellaria media; settings: scored visually after about 3 weeks vs untreated controls
Outline: as §3

VERPE [6] = assay: Post-emergence herbicidal action against VERPE; type: in vivo, Veronica persica; settings: 320 g/ha, visual rating about 3 weeks after treatment
Outline: as §1

harmful plants [7] = assay: Pre-emergence herbicidal action, summary of Tables 4.1-4.15; type: in vivo; settings: result in words
Outline: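 Percent herbicidal action (100% = plants dead, 0% = like controls) was assessed visually about 3 weeks after treatment. Application rates of 1280 or 320 g/ha were applied to the covering soil of freshly sown sandy-loam pots, in 600 l/ha water with 0.5% additive, before emergence.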

HORMU [8] = assay: Post-emergence herbicidal action against HORMU; type: in vivo, Hordeum murinum; settings: 320 g/ha, visual rating about 3 weeks after treatment
Description: (§4) [table] Seeds of mono- and dicotyledonous weed plants are placed in plastic pots in sandy loam soil (twin sowing with one species each of mono- or dicotyledonous weed plants per pot), covered with soil and cultivated in a greenhouse under controlled growth conditions. 2 to 3 weeks after sowing, the test plants are treated at the one-leaf stage. The compounds of the invention, formulated in the form of wettable powders (WP) or as emulsion concentrates (EC), are applied to the green parts of the plants as aqueous suspension or emulsion with addition of 0.5% additive at a water application rate equivalent to 600 litres per hectare. After the test plants have been kept in the greenhouse under optimum growth conditions for about 3 weeks, the activity of the preparations is rated visually in comparison to untreated controls. For example, 100% activity=the plants have died, 0% activity=like control plants. Tables 5.1-5.16 below show the effects of selected compounds of the general formula (I) according to Tables 1 to 3 on various harmful plants at an application rate corresponding to 1280 or 320 g/ha, which have been obtained by the aforementioned experimental method.

ECHCG [9] = assay: Pre-emergence herbicidal action against ECHCG; type: in vivo, Echinochloa crus-galli; settings: scored visually after about 3 weeks vs untreated controls, 100% = plants have died, 0% = like control plants
Outline: as §3

MATIN [10] = assay: Post-emergence herbicidal action against MATIN; type: in vivo, Matricaria inodora; settings: visual rating about 3 weeks after treatment
Outline: as §1

POLCO [11] = assay: Post-emergence herbicidal action against POLCO; type: in vivo, Polygonum convolvulus; settings: 320 g/ha, visual rating about 3 weeks after treatment
Outline: as §1

SETVI [12] = assay: Pre-emergence herbicidal action against SETVI; type: in vivo, Setaria viridis; settings: 1280 g/ha, scored visually after about 3 weeks vs untreated controls
Outline: as §3

POLCO [13] = assay: Pre-emergence herbicidal action against POLCO; type: in vivo, Polygonum convolvulus; settings: 320 g/ha, scored visually after about 3 weeks vs untreated controls
Outline: as §3

AMARE [14] = assay: Pre-emergence herbicidal action against AMARE; type: in vivo, Amaranthus retroflexus; settings: scored visually after about 3 weeks vs untreated controls; for Pre-emergence action at 320 g/ha against AMARE in %: 100% = plants have died, 0% = like control plants; for Pre-emergence action against AMARE in %: 1280 g/ha
Outline: as §3

PHBPU [15] = assay: Pre-emergence herbicidal action against PHBPU; type: in vivo, Pharbitis purpurea; settings: 1280 g/ha, scored visually after about 3 weeks vs untreated controls
Source text: as §2

PHBPU [16] = assay: Post-emergence herbicidal action against PHBPU; type: in vivo, Pharbitis purpurea; settings: 320 g/ha, visual rating about 3 weeks after treatment
Outline: as §1

harmful plants [17] = assay: Post-emergence herbicidal action, summary of Tables 5.1-5.16; type: in vivo; settings: result in words
Description: as §4, with “Seeds” for “[table] Seeds”, “method. As the results from Tables 5.1-5.16 show, compounds of the invention have good herbicidal post-emergence efficacy against a broad spectrum of weed grasses and weeds. […] For example, compounds Nos. I-002, I-006, I-022, I-056 and I-072 applied by the post-emergence method have very good herbicidal action (80% to 100% herbicidal action) against harmful plants such as Alopecurus myosuroides, Amaranthus retroflexus, Matricaria inodora, Setaria viridis, Pharbitis purpurea and Stellaria media at an application rate of 1.28 kg of active substance or less per hectare.” for “method.”

ECHCG [18] = assay: Post-emergence herbicidal action against ECHCG; type: in vivo, Echinochloa crus-galli; settings: 1280 g/ha, post-emergence at one-leaf stage, rated visually after about 3 weeks vs untreated controls
Outline: as §1

MATIN [19] = assay: Pre-emergence herbicidal action against MATIN; type: in vivo, Matricaria inodora; settings: 1280 g/ha, scored visually after about 3 weeks vs untreated controls
Outline: as §3

CYPES = assay: Pre-emergence herbicidal action against CYPES; type: in vivo, Cyperus esculentus; settings: scored visually after about 3 weeks vs untreated controls, 100% = plants have died, 0% = like control plants
Source text: as §2

ALOMY [20] = assay: Pre-emergence herbicidal action against ALOMY; type: in vivo, Alopecurus myosuroides; settings: scored visually after about 3 weeks vs untreated controls, 100% = plants have died, 0% = like control plants
Source text: as §2

VIOTR [21] = assay: Pre-emergence herbicidal action against VIOTR; type: in vivo, Viola tricolor; settings: 1280 g/ha, scored visually after about 3 weeks vs untreated controls
Outline: as §3

SETVI [22] = assay: Post-emergence herbicidal action against SETVI; type: in vivo, Setaria viridis; settings: 1280 g/ha, post-emergence at one-leaf stage, rated visually after about 3 weeks vs untreated controls
Outline: as §1

ALOMY [23] = assay: Post-emergence herbicidal action against ALOMY; type: in vivo, Alopecurus myosuroides; settings: 1280 g/ha, post-emergence at one-leaf stage, rated visually after about 3 weeks vs untreated controls
Outline: as §1

VIOTR [24] = assay: Post-emergence herbicidal action against VIOTR; type: in vivo, Viola tricolor; settings: 320 g/ha, visual rating about 3 weeks after treatment
Outline: as §1

Structure (SMILES) | Post-emergence action against STEME in % (STEME [3]; 320 g/ha) [%] | Pre-emergence action against STEME in % (STEME [5]; 320 g/ha) [%] | Pre-emergence action against STEME in % (STEME [5]; 1280 g/ha) [%] | herbicidal efficacy against harmful plants in the case of pre-emergence treatment (harmful plants [7]) | Pre-emergence action at 1280 g/ha against ECHCG in % (ECHCG [9]) [%] | Post-emergence action against MATIN in % (MATIN [10]; 320 g/ha) [%] | Post-emergence action against POLCO in % (POLCO [11]) [%] | Pre-emergence action against SETVI in % (SETVI [12]) [%] | Pre-emergence action against POLCO in % (POLCO [13]) [%] | Pre-emergence action at 320 g/ha against AMARE in % (AMARE [14]) [%] | Pre-emergence action against AMARE in % (AMARE [14]) [%] | Post-emergence action against AMARE in % (AMARE [1]; 1280 g/ha) [%] | Pre-emergence action against PHBPU in % (PHBPU [15]) [%] | Post-emergence action against STEME in % (STEME [3]; 1280 g/ha) [%] | Post-emergence action against PHBPU in % (PHBPU [16]) [%] | Post-emergence action against ECHCG in % (ECHCG [18]) [%] | Pre-emergence action against MATIN in % (MATIN [19]) [%] | Post-emergence action against MATIN in % (MATIN [10]; 1280 g/ha) [%] | Pre-emergence action at 1280 g/ha against CYPES in % (CYPES) [%] | Pre-emergence action at 1280 g/ha against ALOMY in % (ALOMY [20]) [%] | other results
C=CCNC(=O)COc1nn(-c2c(F)cccc2F)c(-c2ccc(F)c(F)c2)c1[N+](=O)[O-] [III-069] | 90 | 100 | 90 | good herbicidal efficacy | 100 | 80 | 80 | 100 | 90 | 100 | 90 |  |  |  |  |  |  |  |  |  | Post-emergence action against AMARE in % (AMARE [1]; 320 g/ha): 90%; Pre-emergence action against HORMU in % (HORMU [2]): 90%; Pre-emergence action against VERPE in % (VERPE [4]): 100%; Post-emergence action against VERPE in % (VERPE [6]): 90%; Post-emergence action against HORMU in % (HORMU [8]): 80%
COC(=O)COc1nn(-c2cccc(F)c2)c(-c2cccc(F)c2)c1Cl [I-003] | 80 |  | 100 | good herbicidal efficacy |  | 80 |  |  |  | 100 | 100 | 80 | 80 | 80 | 80 | 80 | 100 | 80 | 100 |  | Pre-emergence action against VERPE in % (VERPE [4]): 100%; herbicidal efficacy against harmful plants when applied post-emergence (harmful plants [17]): very good herbicidal efficacy
CCOC(=O)COc1nn(-c2ccc(F)cc2)c(-c2ccccc2)c1Br [I-072] |  |  | 90 | good herbicidal efficacy |  |  |  | 80 | 90 | 80 | 90 | 80 | 90 | 80 |  | 80 | 80 | 80 |  | 80 | Pre-emergence action against VIOTR in % (VIOTR [21]): 80%; Post-emergence action against SETVI in % (SETVI [22]): 80%; herbicidal efficacy against harmful plants when applied post-emergence (harmful plants [17]): very good herbicidal efficacy; Post-emergence action against ALOMY in % (ALOMY [23]): 80%
COC(=O)C(C)Oc1nn(-c2ccccc2F)c(-c2ccccc2)c1C#N (stereo not drawn) [I-061] |  | 90 | 100 | good herbicidal efficacy | 90 |  | 80 | 100 |  | 90 | 100 | 80 | 90 | 80 | 80 | 80 | 90 |  | 90 | 90 | Pre-emergence action against VIOTR in % (VIOTR [21]): 90%; Post-emergence action against SETVI in % (SETVI [22]): 80%; Post-emergence action against AMARE in % (AMARE [1]; 320 g/ha): 80%; Post-emergence action against ALOMY in % (ALOMY [23]): 90%; Post-emergence action against VIOTR in % (VIOTR [24]): 80%
CCOC(=O)COc1nn(-c2ccccc2)c(-c2ccccc2)c1Br [I-070] |  | 80 | 90 | good herbicidal efficacy | 90 |  |  | 90 | 80 | 100 | 100 | 80 | 90 | 90 | 90 | 80 | 90 | 80 | 80 | 90 | Pre-emergence action against VIOTR in % (VIOTR [21]): 90%; Post-emergence action against ALOMY in % (ALOMY [23]): 80%
COC(=O)C(C)Oc1nn(-c2ccccc2)c(-c2ccc(F)cc2)c1C#N (stereo not drawn) [I-064] | 90 | 90 |  |  |  | 80 | 80 |  | 100 | 100 |  |  |  |  | 80 |  |  |  |  |  | Pre-emergence action against HORMU in % (HORMU [2]): 90%; Post-emergence action against HORMU in % (HORMU [8]): 90%; Post-emergence action against VIOTR in % (VIOTR [24]): 100%
